# System: C. glabrata WT (JEY10028) cells
# Assay: Mitochondrial staining with MitoTracker
# Format: cell-based, Candida glabrata
# Conditions: 6 h and 24 h, vs DMSO
structure (smiles),measurement,value
"c1ccc(-c2cccc(-c3ccccn3)n2)nc1 [2,2′:6′,2′′-terpyridine]",MitoTracker Red CMXRos fluorescence,lower fluorescence intensities

# Source: PMC10845951, “Characterization of a selective, iron-chelating antifungal compound that disrupts fungal metabolism and synergizes with fluconazole” (Microbiology Spectrum, 2024)
